Measurements from patent publication US20110008888A1, “Novel Genetic Approaches to Reduce or Inhibit Tumorgenicity of Human Embryonic Stem Cells and Derivatives Following Transplantation” (The John Hopkins University, priority 2005, published 2011).
Entries after “also recorded” stand apart in the source; their conditions may differ. Where two headings read alike, the source gives them in different places.

What was measured:
mESCs = experiment: Cell proliferation assay, mESCs (viable cell count after 48 hours); type: cell-based, mouse; conditions: for EC50: mESCs, cell number after 48 hours, read-out: half-effective concentration (EC50) for inhibition of mESC proliferation; for effect on proliferation of mESCs (words): dose-dependent, p<0.05
[1] = test system: delayed rectifier K+ currents (IKDR) in mESCs; experiment: Whole-cell patch clamp, block of IKDR in undifferentiated mESCs; type: cell-based, mouse; conditions: for IC50: whole-cell patch clamp, room temperature
hESCs = experiment: Cell proliferation assay, hESCs (colony parameters after 6 days); type: cell-based, human; conditions: for effect on proliferation of hESCs: dose-dependent, p<0.05
ESCs = experiment: Cytotoxic effects of K+ channel blockers on ESCs; conditions: high concentrations
IKDR in hESCs = experiment: Whole-cell patch clamp, block of IKDR in undifferentiated hESCs; type: cell-based, human; conditions: pluripotent hESCs (H1)

Compound | EC50 (mESCs; Mus musculus) | effect on proliferation of mESCs (words) (mESCs) | IC50 ([1]; undifferentiated mESCs) | effect on proliferation of hESCs (hESCs) | cytotoxic effects (ESCs) | IKDR component sensitive to blocker ([1]; mESCs, 100 nM IBTX) | current inhibition of IKDR in mESCs ([1]; undifferentiated mESCs, IBTX 100 nM, n=3) | IC50 (IKDR in hESCs) | effect on proliferation of mESCs (words) (mESCs; listed as TEA+) | EC50 (mESCs) | EC50 (hESCs; hESCs, colony parameters after 6 days, read-out: EC50 for inhibition of hESC proliferation)
Nc1ccncc1 [4-AP, 4-aminopyridine] | 4000 ± 1800 µM | significantly reduced | 550 ± 170 µM | significantly reduced | – | – | – | – | – | – | –
iberiotoxin [IBTX] | – | significantly reduced; also recorded: dose-dependently reduced | – | significantly reduced | cytotoxic effects | sensitive | 33.2±12.7% | – | – | – | –
CC[N+](CC)(CC)CC [TEA] | – | significantly reduced | 1400 ± 380 µM | significantly reduced | – | – | – | 2100 ± 200 µM | significantly inhibited | 11900 ± 1200 µM | 3800 ± 100 µM
